As a reminder, the IC50 is the concentration that gives 50% inhibition. What is called melting point is the temperature, or range, at which the solid turns liquid.

The record followed here is patent US20120095036A1, “NOVEL SUBSTITUTED INDAZOLE AND AZA-INDAZOLE DERIVATIVES AS GAMMA SECRETASE MODULATORS” (priority 2009, published 2012).

Some results are limits rather than exact numbers.

The test system of data set [1] is Aβtotal. Briefly: Method 2: Aβtotal Alphalisa on supernatant of SKNBE2 cells carrying APP 695 wild type. It is filed as cell-based. The settings on record: SKNBE2 cells APP 695 wild type, overnight. The method, then: (§1) Screening was carried out using SKNBE2 cells carrying the APP 695—wild type, grown in Dulbecco's Modified Eagle's Medium/Nutrient mixture F-12 (DMEM/NUT-mix F-12) (HAM) provided by Invitrogen (cat no. 10371-029) containing 5% Serum/Fe supplemented with 1% non-essential amino acids, 1-glutamine 2 mM, Hepes 15 mM, penicillin 50 U/ml (units/ml) en streptomycin 50 μg/ml. Cells were grown to near confluency.
(§2) The screening was performed using a modification of the assay as described in Citron et al (1997) Nature Medicine 3: 67. Briefly, cells were plated in a 384-well plate at 10^4 cells/well in Ultraculture (Lonza, BE12-725F) supplemented with 1% glutamine (Invitrogen, 25030-024), 1% non-essential amino acid (NEAA), penicillin 50 U/ml en streptomycin 50 μg/ml in the presence of test compound at different test concentrations. The cell/compound mixture was incubated overnight at 37° C., 5% CO2, The next day the media were assayed by two sandwich immuno-assays, for Aβ42 and Aβtotal.
(§3) Aβtotal and Aβ42 concentrations were quantified in the cell supernatant using the Aphalisa technology (Perkin Elmer). Alphalisa is a sandwich assay using biotinylated antibody attached to streptavidin coated donorbeads and antibody conjugated to acceptor beads. In the presence of antigen, the beads come into close proximity. The excitation of the donor beads provokes the release of singlet oxygen molecules that trigger a cascade of energy transfer in the acceptor beads, resulting in light emission. To quantify the amount of Aβ42 in the cell supernatant, monoclonal antibody specific to the C-terminus of Aβ42 (JRF/cAβ42/26) was coupled to the receptor beads and biotinylated antibody specific to the N-terminus of AB (JRF/AβN/25) was used to react with the donor beads. To quantify the amount of Aβtotal in the cell supernatant, monoclonal antibody specific to the N-terminus of AB (JRF/AβN/25) was coupled to the receptor beads and biotinylated antibody specific to the mid region of Aβ (biotinylated 4G8) was used to react with the donor beads.
(§4) To obtain the values reported in Table 3b, the data were calculated as percentage of the maximum amount of amyloid Beta 42 measured in the absence of the test compound. The sigmoidal dose response curves were analyzed using non-linear regression analysis with percentage of the control plotted against the log concentration of the compound. A 4-parameter equation was used to determine the IC50.
(In general: Bead proximity is the source of the signal in Alpha formats.)

The test system of data set [2] is Aβtotal. Put plainly: Method 1: Aβtotal sandwich ELISA on media of SKNBE2 cells carrying APP 695 wild type. It is filed as cell-based. Particulars: SKNBE2 cells APP 695 wild type, 18 hours. On the procedure: (§5) Screening was carried out using SKNBE2 cells carrying the APP 695—wild type, grown in Dulbecco's Modified Eagle's Medium/Nutrient mixture F-12 (DMEM/NUT-mix F-12) (HAM) provided by Gibco (cat no. 31330-38) containing 5% Serum/Fe supplemented with 1% non-essential amino acids. Cells were grown to near confluency.
(§6) The screening was performed using the assay as described in Citron et al (1997) Nature Medicine 3: 67. Briefly, cells were plated in a 96-well plate at about 10^5 cells/ml one day prior to addition of compounds. Compounds were added to the cells in Ultraculture (Lonza, BE12-725F) supplemented with 1% glutamine (Invitrogen, 25030-024) for 18 hours. The media were assayed by two sandwich ELISAs, for Aβ42 and Aβtotal. Toxicity of the compounds was assayed by WST-1 cell proliferation reagent (Roche, 1 644 807) according to the manufacturer's protocol.
To quantify the amount of Aβtotal in the cell supernatant, samples and standards were added to a 6E10-coated plate. The plate was allowed to incubate overnight at 4° C. in order to allow formation of the antibody-amyloid complex. Following this incubation and subsequent wash steps a selective anti-AB-antibody conjugate (biotinylated 4G8) was added and incubated for a minimum of 1 hour in order to allow formation of the antibody-Amyloid-antibody-complex. After incubation and appropriate wash steps, a Streptavidine-Peroxidase-Conjugate was added, followed 30 minutes later by an addition of Quanta Blu fluorogenic peroxidase substrate according to the manufacturer's instructions (Pierce Corp., Rockford, Il).
(§7) To obtain the values reported in Table 3a, the sigmoidal dose response curves were analysed by computerised curve-fitting, with percent of inhibition plotted against compound concentration. A 4-parameter equation (model 205) in XLfit was used to determine the IC50. The top and the bottom of the curve were fixed to 100 and 0, respectively, and the hill slope was fixed to 1. The IC50 represents the concentration of a compound that is required for inhibiting a biological effect by 50% (Here, it is the concentration where Aβ peptide level is reduced by 50%).
In general terms: An ELISA detects its analyte on a solid surface through an enzyme-linked reagent.

Data set [3] concerns Aβ42. Briefly: Method 1: Aβ42 sandwich ELISA on media of SKNBE2 cells carrying APP 695 wild type (γ-secretase-modulating activity). It is filed as cell-based. Particulars: SKNBE2 cells APP 695 wild type, 18 hours. The method, then:
as §5, §6
To quantify the amount of Aβ42 in the cell supernatant, commercially available Enzyme-Linked-Immunosorbent-Assay (ELISA) kits were used (Innotest® β-Amyloid(1-42), Innogenetics N.V., Ghent, Belgium). The Aβ42 ELISA was performed essentially according to the manufacturer's protocol. Briefly, the standards (dilutions of synthetic A131-42) were prepared in polypropylene Eppendorf with final concentrations of 8000 down to […] (½ dilution step). Samples, standards and blanks (100 μl) were added to the anti-Aβ42-coated plate supplied with the kit (the capture antibody selectively recognizes the C-terminal end of the antigen). The plate was allowed to incubate 3 h at 25° C. in order to allow formation of the antibody-amyloid complex. Following this incubation and subsequent wash steps a selective anti-A13-antibody conjugate (biotinylated 3D6) was added and incubated for a minimum of 1 hour in order to allow formation of the antibody-Amyloid-antibody-complex. After incubation and appropriate wash steps, a Streptavidine-Peroxidase-Conjugate was added, followed 30 minutes later by an addition of 3,3′,5,5′-tetramethylbenzidine (TMB)/peroxide mixture, resulting in the conversion of the substrate into a coloured product. This reaction was stopped by the addition of sulfuric acid (0.9 N) and the colour intensity was measured by means of photometry with an ELISA-reader with a 450 nm filter.
as §7

Data set [4] concerns Aβ42. Briefly: Method 2: Aβ42 Alphalisa on supernatant of SKNBE2 cells carrying APP 695 wild type. In kind it is cell-based. Particulars: SKNBE2 cells APP 695 wild type, overnight. The method, then: as §1, §2, §3, §4

In the case of `CCCCn1cc2cc(C#N)cc(Nc3ccc(-n4cnc(C)c4)c(OC)c3)c2n1` [Compound 11, 2-butyl-7-[[3-methoxy-4-(4-methyl-1H-imidazol-1-yl)phenyl]amino]-2H-indazole-5-carbonitrile .2HCl], the IC50 in the data set on Aβtotal [1] is greater than 3 µM; in the data set with Aβtotal [2], greater than 3 µM; in the data set on Aβ42 [3], 0.077 µM; in the data set with Aβ42 [4], less than 3 µM.

In the case of `COc1cc(Nc2cccc3cn(CC4CC4)nc23)ccc1-n1cnc(C)c1` [Compound 13, 2-(cyclopropylmethyl)-N-[3-methoxy-4-(4-methyl-1H-imidazol-1-yl)phenyl]-2H-indazol-7-amine .2HCl], the IC50 with Aβtotal [1] was greater than 10 µM; with Aβtotal [2], greater than 3 µM; in the data set with Aβ42 [3] it was 0.283 µM; in the data set on Aβ42 [4], 0.079 µM.

With `COc1cc(Nc2cccc3c(C)n(-c4ccc(F)cc4F)nc23)ccc1-n1cnc(C)c1` [Compound 16, 2-(2,4-difluorophenyl)-N-[3-methoxy-4-(4-methyl-1H-imidazol-1-yl)phenyl]-3-methyl-2H-indazol-7-amine], the IC50 was 8.51 µM in the data set with Aβtotal [1] (Homo sapiens), greater than 3 µM in the data set with Aβtotal [2] (Homo sapiens), 0.19 µM with Aβ42 [3] (Homo sapiens) and 0.054 µM in the data set on Aβ42 [4] (Homo sapiens).

As for `COc1cc(Nc2cccc3cn(CC(F)(F)F)nc23)ccc1-n1cnc(C)n1` [Compound 18, N-[3-methoxy-4-(3-methyl-1H-1,2,4-triazol-1-yl)phenyl]-2-(2,2,2-trifluoroethyl)-2H-indazol-7-amine], the IC50 in the data set on Aβtotal [1] (Homo sapiens) was greater than 10 µM; in the data set on Aβtotal [2] (Homo sapiens), greater than 3 µM; in the data set with Aβ42 [3] (Homo sapiens), 0.479 µM; in the data set with Aβ42 [4] (Homo sapiens) it was 0.331 µM.

Take `COc1cccc(-n2cc3cccc(Nc4ccc(-n5cnc(C)n5)c(OC)c4)c3n2)c1` [Compound 19, N-[3-methoxy-4-(3-methyl-1H-1,2,4-triazol-1-yl)phenyl]-2-(3-methoxyphenyl)-2H-indazol-7-amine]: the IC50 in the data set on Aβtotal [1] (Homo sapiens) is 3.02 µM; in the data set with Aβtotal [2] (Homo sapiens), greater than 3 µM; with Aβ42 [3] (Homo sapiens), 0.126 µM; in the data set with Aβ42 [4] (Homo sapiens), 0.123 µM.

In the case of `CCOc1cc(C)c(-n2nc3c(Nc4ccc(-n5cnc(C)n5)c(OC)c4)cccc3c2C)cc1C(C)C` [Compound 20, 2-[4-ethoxy-2-methyl-5-(1-methylethyl)phenyl]-N-[3-methoxy-4-(3-methyl-1H-1,2,4-triazol-1-yl)phenyl]-3-methyl-2H-indazol-7-amine], the IC50 was 6.03 µM in the data set on Aβtotal [1] (Homo sapiens), greater than 3 µM in the data set on Aβtotal [2] (Homo sapiens), 0.067 µM with Aβ42 [3] (Homo sapiens) and 0.059 µM in the data set with Aβ42 [4] (Homo sapiens).

Molecule `COc1cc(Nc2nc(C)cc3cn(CC(F)(F)F)nc23)ccc1-n1cnc(C)n1` [Compound 21, N-[3-methoxy-4-(3-methyl-1H-1,2,4-triazol-1-yl)phenyl]-5-methyl-2-(2,2,2-trifluoroethyl)-2H-pyrazolo[3,4-c]pyridin-7-amine] registered a melting point of 203.4 °C. Further, in the data set with Aβtotal [1] (Homo sapiens), the IC50 was greater than 3 µM. The IC50 with Aβ42 [4] (Homo sapiens) is greater than 3 µM.

As to `Cc1ncc(-c2ccc(Nc3cccc4cn(C)nc34)cc2)o1` [Compound 24, 2-methyl-N-[4-(2-methyl-5-oxazolyl)phenyl]-2H-indazol-7-amine], the melting point was determined as 168.7 °C. Moreover, in the data set on Aβtotal [1] (Homo sapiens), the IC50 was greater than 3 µM. In the data set on Aβ42 [4] (Homo sapiens), the IC50 is greater than 3 µM.

Regarding `Cc1ncc(-c2ccc(Nc3cccc4cn(CC5CC5)nc34)cc2)o1` [Compound 25, 2-(cyclopropylmethyl)-N-[4-(2-methyl-5-oxazolyl)phenyl]-2H-indazol-7-amine .2HCl], the IC50 in the data set with Aβtotal [1] is 49 µM; with Aβtotal [2], greater than 150 µM; in the data set on Aβ42 [3], 1.74 µM; with Aβ42 [4] it was 1.26 µM.

Consider `Cc1ncc(-c2ccc(Nc3cccc4cn(C5CCOCC5)nc34)cc2)o1` [Compound 28, N-[4-(2-methyl-5-oxazolyl)phenyl]-2-(tetrahydro-2H-pyran-4-yl)-2H-indazol-7-amine], for which the melting point was 224.8 °C. The IC50 in the data set on Aβ42 [4] (Homo sapiens) is greater than 3 µM.

`CCOc1cc(C)c(-n2nc3c(Nc4ccc(-c5cnc(C)o5)cc4)cccc3c2C)cc1C(C)C` [Compound 30, 2-[4-ethoxy-2-methyl-5-(1-methylethyl)phenyl]-3-methyl-N-[4-(2-methyl-5-oxazolyl)phenyl]-2H-indazol-7-amine]: the IC50 in the data set on Aβtotal [1] (Homo sapiens) was greater than 10 µM; in the data set on Aβtotal [2] (Homo sapiens), greater than 3 µM; in the data set on Aβ42 [3] (Homo sapiens), 0.127 µM; with Aβ42 [4] (Homo sapiens), 0.129 µM.

In the case of `Cc1ncc(-c2ccc(Nc3cccc4c(C)n(-c5ccc(F)cc5)nc34)cc2)o1` [Compound 31, 2-(4-fluorophenyl)-3-methyl-N-[4-(2-methyl-5-oxazolyl)phenyl]-2H-indazol-7-amine .1.5HCl], the IC50 with Aβtotal [1] was greater than 10 µM; with Aβtotal [2] it was greater than 3 µM; in the data set with Aβ42 [3], 0.126 µM; in the data set with Aβ42 [4], 0.037 µM.

`Cc1ncc(-c2ccc(Nc3cccc4c(C)n(-c5ccc(F)cc5F)nc34)cc2)o1` [Compound 33, 2-(2,4-difluorophenyl)-3-methyl-N-[4-(2-methyl-5-oxazolyl)phenyl]-2H-indazol-7-amine] came in with a melting point of 139.9 °C. This molecule also yielded an IC50 in the data set on Aβtotal [1] (Homo sapiens) greater than 10 µM. The IC50 with Aβ42 [4] (Homo sapiens) amounted to 0.166 µM.

In the case of `COc1cc(Nc2cccc3cn(CC4CC4)nc23)ccc1-c1ocnc1C` [Compound 37, 2-(cyclopropylmethyl)-N-[3-methoxy-4-(4-methyl-5-oxazolyl)phenyl]-2H-indazol-7-amine .2HCl], the IC50 was greater than 3 µM in the data set on Aβtotal [1], greater than 3 µM with Aβtotal [2], 2.66 µM in the data set with Aβ42 [3] and greater than 3 µM in the data set on Aβ42 [4].

Turning to `COc1cccc(-n2nc3c(Nc4ccc(-c5ocnc5C)c(OC)c4)cccc3c2C)c1` [Compound 39, N-[3-methoxy-4-(4-methyl-5-oxazolyl)phenyl]-2-(3-methoxyphenyl)-3-methyl-2H-indazol-7-amine .1.9HCl], the IC50 in the data set on Aβtotal [1] is greater than 10 µM; with Aβtotal [2], greater than 3 µM; with Aβ42 [3], 0.029 µM; in the data set on Aβ42 [4], 0.03 µM.

Regarding `Cc1ncoc1-c1ccc(Nc2cccc3c(C)n(-c4ccc(F)cc4)nc23)cn1` [Compound 46, 2-(4-fluorophenyl)-3-methyl-N-[6-(4-methyl-5-oxazolyl)-3-pyridinyl]-2H-indazol-7-amine], the IC50 in the data set on Aβtotal [1] (Homo sapiens) is 4.27 µM; in the data set with Aβtotal [2] (Homo sapiens), greater than 3 µM; in the data set on Aβ42 [3] (Homo sapiens) it was 0.199 µM; in the data set on Aβ42 [4] (Homo sapiens), 0.066 µM.
